Patent US20260022142A1, “MACROCYCLIC IMMUNOMODULATORS” (Bristol-Myers Squibb Company, priority 2022, published 2026)
Bridge positions count the residues as written; N and C are the ends. Square brackets hold non-standard residues; d marks the D form. Peptide text beside a SMILES is read from it. * marks the point of attachment. ξ: configuration not given here. Phe(3-CF3) = N[C@@H](Cc1cccc(C(F)(F)F)c1)C(=O)O; Phe(4-COOH) = N[C@@H](Cc1ccc(C(=O)O)cc1)C(=O)O; Bip = N[C@@H](Cc1ccc(-c2ccccc2)cc1)C(=O)O; NH(CH2)14COOH = O=C(O)CCCCCCCCCCCCCCN*; Phe(3-Me) = Cc1cccc(C[C@H](N)C(=O)O)c1; NH(CH2)12COOH = O=C(O)CCCCCCCCCCCCN*; Val(3-OH) = CC(C)(O)[C@H](N)C(=O)O; Cha = N[C@@H](CC1CCCCC1)C(=O)O; Thr(3ξ) = CC(O)[C@H](N)C(=O)O; dDab = NCC[C@@H](N)C(=O)O; Carboxymethyl = O=C(O)C*; Nle = CCCC[C@H](N)C(=O)O; Orn = NCCC[C@H](N)C(=O)O; Dab = NCC[C@H](N)C(=O)O; AEEA = NCCOCCOCC(=O)O

Biological target: T1, PD-1/PD-L1 interaction (PE-labeled human PD-L1-Ig binding to Jurkat cell line over-expressing human PD-1) (Homo sapiens, UniProt Q15116)
T1 construct: expressed in transfected cells; host or cells: Jurkat
Assay: Jurkat-PD-1 Cell Binding High-Content Screening Assay (CBA)
Format: cell-based
Conditions: Jurkat cell line over-expressing human PD-1; PE-labeled PD-L1-Ig 20 nM final; read-out: Jurkat hPD1-PDL1 IC50
In short: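 Human PD-L1-Ig carrying a covalent PE label on its Ig tag serves as the probe, applied at 20 nM final to compound-treated (2 h, 37° C) Jurkat-hPD-1 cells in medium with 10% fetal calf serum. After one hour, fixation and nuclear staining precede high-content image analysis.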

T1 sequence (Q15116 25-288): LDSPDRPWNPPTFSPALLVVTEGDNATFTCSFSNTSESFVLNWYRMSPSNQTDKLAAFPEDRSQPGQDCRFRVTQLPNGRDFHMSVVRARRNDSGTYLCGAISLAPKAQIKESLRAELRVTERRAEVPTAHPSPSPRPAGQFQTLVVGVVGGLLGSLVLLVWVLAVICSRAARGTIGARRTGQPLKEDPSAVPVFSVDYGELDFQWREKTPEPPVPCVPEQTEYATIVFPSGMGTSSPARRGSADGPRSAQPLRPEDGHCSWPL

| SMILES | IC50 |
| --- | --- |
| CC(C)C[C@H]1NC(=O)[C@H](CCCN)NC(=O)[C@H](Cc2ccc(OCC(=O)O)cc2)NC(=O)[C@H](Cc2ccc(-c3ccccc3)cc2)NC(=O)[C@H](Cc2ccc(OCC(=O)O)cc2)NC(=O)[C@H](Cc2cccc(C(F)(F)F)c2)NC(=O)[C@H](CC(=O)O)NC(=O)[C@H](Cc2ccc(OCC(=O)O)cc2)NC(=O)[C@H](Cc2cnc[nH]2)NC(=O)CSC[C@@H](C(=O)N[C@@H](CCN)C(=O)NCCCCCCCCCCCCC(=O)O)NC(=O)[C@H](CO)NC(=O)[C@H](C(C)(C)O)NC(=O)[C@H](CC2CCCCC2)NC(=O)[C@H](CCN)NC1=O [Compound 3836] ({CH2CO}-HY(Carboxymethyl)D[Phe(3-CF3)]Y(Carboxymethyl)[Bip]Y(Carboxymethyl)[Orn][dL][Dab][Cha][Val(3-OH)]SC[Dab]-{NH(CH2)12COOH}; thioether N-14) | 0.0456 µM |
| CC(C)C[C@H]1NC(=O)[C@H](CCCN)NC(=O)[C@H](Cc2ccc(C(=O)O)cc2)NC(=O)[C@H](Cc2ccc(-c3ccccc3)cc2)NC(=O)[C@H](Cc2ccc(C(=O)O)cc2)NC(=O)[C@H](Cc2cccc(C(F)(F)F)c2)NC(=O)[C@H](CC(=O)O)NC(=O)[C@H](Cc2ccc(OCC(=O)O)cc2)NC(=O)[C@H](Cc2ccc(OCC(=O)O)cc2)NC(=O)CSC[C@@H](C(=O)N[C@@H](CCN)C(=O)NCCOCCOCC(=O)NCCOCCOCC(=O)NCCCCCCCCCCCCCCC(=O)O)NC(=O)[C@H](CO)NC(=O)[C@H](C(C)(C)O)NC(=O)[C@H](CC2CCCCC2)NC(=O)[C@H](CCN)NC1=O [Compound 3839] ({CH2CO}-Y(Carboxymethyl)Y(Carboxymethyl)D[Phe(3-CF3)][Phe(4-COOH)][Bip][Phe(4-COOH)][Orn][dL][Dab][Cha][Val(3-OH)]SC[Dab][AEEA][AEEA]-{NH(CH2)14COOH}; thioether N-14) | 0.178 µM |
| CC(C)C[C@H]1NC(=O)[C@H](Cc2cnc[nH]2)NC(=O)[C@H](Cc2ccc(C(=O)O)cc2)NC(=O)[C@H](Cc2ccc(-c3ccccc3)cc2)NC(=O)[C@H](Cc2ccc(C(=O)O)cc2)NC(=O)[C@H](Cc2cccc(C(F)(F)F)c2)NC(=O)[C@H](CC(=O)O)NC(=O)[C@H](Cc2ccc(OCC(=O)O)cc2)NC(=O)[C@H](Cc2ccc(OCC(=O)O)cc2)NC(=O)CSC[C@@H](C(=O)N[C@@H](CCN)C(=O)NCCOCCOCC(=O)NCCOCCOCC(=O)NCCCCCCCCCCCCCCC(=O)O)NC(=O)[C@H](CO)NC(=O)[C@H](C(C)(C)O)NC(=O)[C@H](CC2CCCCC2)NC(=O)[C@H](CCN)NC1=O [Compound 3840] ({CH2CO}-Y(Carboxymethyl)Y(Carboxymethyl)D[Phe(3-CF3)][Phe(4-COOH)][Bip][Phe(4-COOH)]H[dL][Dab][Cha][Val(3-OH)]SC[Dab][AEEA][AEEA]-{NH(CH2)14COOH}; thioether N-14) | 0.34 µM |
| Cc1cccc(C[C@@H]2NC(=O)[C@H](CC(=O)O)NC(=O)[C@H](Cc3ccc(OCC(=O)O)cc3)NC(=O)[C@H](C(C)O)NC(=O)CSC[C@@H](C(=O)N[C@@H](CCN)C(=O)NCCOCCOCC(=O)NCCCCCCCCCCCCC(=O)O)NC(=O)[C@H](CC(=O)O)NC(=O)[C@H](C(C)C)NC(=O)[C@H](CC3CCCCC3)NC(=O)[C@H](CCN)NC(=O)[C@@H](CC(C)C)NC(=O)[C@H](CCCN)NC(=O)[C@H](Cc3ccc(C(=O)O)cc3)NC(=O)[C@H](Cc3ccc(-c4ccccc4)cc3)NC(=O)[C@H](Cc3ccc(C(=O)O)cc3)NC2=O)c1 (stereo partly drawn) [Compound 3843] ({CH2CO}-[Thr(3ξ)]Y(Carboxymethyl)D[Phe(3-Me)][Phe(4-COOH)][Bip][Phe(4-COOH)][Orn][dL][Dab][Cha]VDC[Dab][AEEA]-{NH(CH2)12COOH}; thioether N-14) | 0.0407 µM |
| CC(C)C[C@H]1NC(=O)[C@H](CCCN)NC(=O)[C@H](Cc2ccc(C(=O)O)cc2)NC(=O)[C@H](Cc2ccc(-c3ccccc3)cc2)NC(=O)[C@H](Cc2ccc(C(=O)O)cc2)NC(=O)[C@H](Cc2cccc(C(F)(F)F)c2)NC(=O)[C@H](CC(=O)O)NC(=O)[C@H](Cc2ccc(OCC(=O)O)cc2)NC(=O)[C@H](Cc2ccc(OCC(=O)O)cc2)NC(=O)CSC[C@@H](C(=O)N[C@@H](CCN)C(=O)NCCCCCCCCCCCCCCC(=O)O)NC(=O)[C@H](CC(=O)O)NC(=O)[C@H](C(C)C)NC(=O)[C@H](CC2CCCCC2)NC(=O)[C@H](CCN)NC1=O [Compound 3848] ({CH2CO}-Y(Carboxymethyl)Y(Carboxymethyl)D[Phe(3-CF3)][Phe(4-COOH)][Bip][Phe(4-COOH)][Orn][dL][Dab][Cha]VDC[Dab]-{NH(CH2)14COOH}; thioether N-14) | 0.317 µM |
| CC(C)C[C@H]1NC(=O)[C@H](CCCN)NC(=O)[C@H](Cc2ccc(C(=O)O)cc2)NC(=O)[C@H](Cc2ccc(-c3ccccc3)cc2)NC(=O)[C@H](Cc2ccc(C(=O)O)cc2)NC(=O)[C@H](Cc2cccc(C(F)(F)F)c2)NC(=O)[C@H](CC(=O)O)NC(=O)[C@H](Cc2ccc(OCC(=O)O)cc2)NC(=O)[C@H](Cc2ccc(OCC(=O)O)cc2)NC(=O)CSC[C@@H](C(=O)N[C@@H](CCN)C(=O)NCCCCCCCCCCCCCCC(=O)O)NC(=O)[C@H](CCC(=O)O)NC(=O)[C@H](C(C)C)NC(=O)[C@H](CC2CCCCC2)NC(=O)[C@H](CCN)NC1=O [Compound 3849] ({CH2CO}-Y(Carboxymethyl)Y(Carboxymethyl)D[Phe(3-CF3)][Phe(4-COOH)][Bip][Phe(4-COOH)][Orn][dL][Dab][Cha]VEC[Dab]-{NH(CH2)14COOH}; thioether N-14) | 0.25 µM |

Molecules with a lower IC50, results first:

| IC50 | SMILES |
| --- | --- |
| 0.0341 µM | CCCC[C@@H]1NC(=O)CSC[C@@H](C(=O)N[C@@H](CCN)C(=O)NCCOCCOCC(=O)NCCCCCCCCCCCCC(=O)O)NC(=O)[C@H](CO)NC(=O)[C@H](C(C)(C)O)NC(=O)[C@H](CC2CCCCC2)NC(=O)[C@H](CCN)NC(=O)[C@@H](CC(C)C)NC(=O)[C@H](CCCN)NC(=O)[C@H](Cc2ccc(C(=O)O)cc2)NC(=O)[C@H](Cc2ccc(-c3ccccc3)cc2)NC(=O)[C@H](Cc2ccc(C(=O)O)cc2)NC(=O)[C@H](Cc2cccc(C)c2)NC(=O)[C@H](CC(=O)O)NC(=O)[C@H](Cc2ccc(OCC(=O)O)cc2)NC1=O [Compound 3841] ({CH2CO}-[Nle]Y(Carboxymethyl)D[Phe(3-Me)][Phe(4-COOH)][Bip][Phe(4-COOH)][Orn][dL][Dab][Cha][Val(3-OH)]SC[Dab][AEEA]-{NH(CH2)12COOH}; thioether N-14) |
| 0.0283 µM | CC(C)C[C@@H]1NC(=O)CSC[C@@H](C(=O)N[C@@H](CCN)C(=O)NCCCCCCCCCCCCC(=O)O)NC(=O)[C@H](CO)NC(=O)[C@H](C(C)(C)O)NC(=O)[C@H](CC2CCCCC2)NC(=O)[C@H](CCN)NC(=O)[C@@H](CC(C)C)NC(=O)[C@H](CCCN)NC(=O)[C@H](Cc2ccc(OCC(=O)O)cc2)NC(=O)[C@H](Cc2ccc(-c3ccccc3)cc2)NC(=O)[C@H](Cc2ccc(OCC(=O)O)cc2)NC(=O)[C@H](Cc2cccc(C(F)(F)F)c2)NC(=O)[C@H](CC(=O)O)NC(=O)[C@H](Cc2ccc(OCC(=O)O)cc2)NC1=O [Compound 3835] ({CH2CO}-LY(Carboxymethyl)D[Phe(3-CF3)]Y(Carboxymethyl)[Bip]Y(Carboxymethyl)[Orn][dL][Dab][Cha][Val(3-OH)]SC[Dab]-{NH(CH2)12COOH}; thioether N-14) |
| 0.0225 µM | CC(C)C[C@H]1NC(=O)[C@H](CCCN)NC(=O)[C@H](Cc2ccc(C(=O)O)cc2)NC(=O)[C@H](Cc2ccc(-c3ccccc3)cc2)NC(=O)[C@H](Cc2ccc(C(=O)O)cc2)NC(=O)[C@H](Cc2cccc(C(F)(F)F)c2)NC(=O)[C@H](CC(=O)O)NC(=O)[C@H](Cc2ccc(OCC(=O)O)cc2)NC(=O)[C@H](CC2CCCCC2)NC(=O)CSC[C@@H](C(=O)N[C@H](CCN)C(=O)NCCOCCOCC(=O)NCCOCCOCC(=O)NCCCCCCCCCCCCC(=O)O)NC(=O)[C@H](CO)NC(=O)[C@H](C(C)(C)O)NC(=O)[C@H](CC2CCCCC2)NC(=O)[C@H](CCN)NC1=O [Compound 3831] ({CH2CO}-[Cha]Y(Carboxymethyl)D[Phe(3-CF3)][Phe(4-COOH)][Bip][Phe(4-COOH)][Orn][dL][Dab][Cha][Val(3-OH)]SC[dDab][AEEA][AEEA]-{NH(CH2)12COOH}; thioether N-14) |
| 0.0161 µM | Cc1cccc(C[C@@H]2NC(=O)[C@H](CC(=O)O)NC(=O)[C@H](Cc3ccc(OCC(=O)O)cc3)NC(=O)[C@H](Cc3ccc(OCC(=O)O)cc3)NC(=O)CSC[C@@H](C(=O)N[C@@H](CCN)C(=O)NCCOCCOCC(=O)NCCCCCCCCCCCCC(=O)O)NC(=O)[C@H](CO)NC(=O)[C@H](C(C)(C)O)NC(=O)[C@H](CC3CCCCC3)NC(=O)[C@H](CCN)NC(=O)[C@@H](CC(C)C)NC(=O)[C@H](CCCN)NC(=O)[C@H](Cc3ccc(C(=O)O)cc3)NC(=O)[C@H](Cc3ccc(-c4ccccc4)cc3)NC(=O)[C@H](Cc3ccc(C(=O)O)cc3)NC2=O)c1 [Compound 3842] ({CH2CO}-Y(Carboxymethyl)Y(Carboxymethyl)D[Phe(3-Me)][Phe(4-COOH)][Bip][Phe(4-COOH)][Orn][dL][Dab][Cha][Val(3-OH)]SC[Dab][AEEA]-{NH(CH2)12COOH}; thioether N-14) |
| 0.0152 µM | Cc1cccc(C[C@@H]2NC(=O)[C@H](CC(=O)O)NC(=O)[C@H](Cc3ccc(OCC(=O)O)cc3)NC(=O)[C@H](C(C)O)NC(=O)CSC[C@@H](C(=O)N[C@@H](CCN)C(=O)NCCCCCCCCCCCCC(=O)O)NC(=O)[C@H](CO)NC(=O)[C@H](C(C)(C)O)NC(=O)[C@H](CC3CCCCC3)NC(=O)[C@H](CCN)NC(=O)[C@@H](CC(C)C)NC(=O)[C@H](CCCN)NC(=O)[C@H](Cc3ccc(OCC(=O)O)cc3)NC(=O)[C@H](Cc3ccc(-c4ccccc4)cc3)NC(=O)[C@H](Cc3ccc(OCC(=O)O)cc3)NC2=O)c1 (stereo partly drawn) [Compound 3844] ({CH2CO}-[Thr(3ξ)]Y(Carboxymethyl)D[Phe(3-Me)]Y(Carboxymethyl)[Bip]Y(Carboxymethyl)[Orn][dL][Dab][Cha][Val(3-OH)]SC[Dab]-{NH(CH2)12COOH}; thioether N-14) |
